Source: ChEMBL document CHEMBL1140532, “Omega-alkoxy analogues of SAHA (vorinostat) as inhibitors of HDAC: a study of chain-length and stereochemical dependence” (Bioorg Med Chem Lett, 2007)

Experiments:
NB-4 = assay: Growth inhibition of human NB4 cells by SRB assay; assay type: functional, cell-based
NCI-H460 = assay: Growth inhibition of human H460 cells by SRB assay; assay type: functional, cell-based
HCT-116 = assay: Growth inhibition of human HCT116 cells by SRB assay; assay type: functional, cell-based
Histone deacetylase 2 = Histone deacetylase 2 (Homo sapiens, UniProt Q92769); assay: Inhibition of HDAC2 in HeLa cell lysates
Histone deacetylase 2, sequence (Q92769 whole entry): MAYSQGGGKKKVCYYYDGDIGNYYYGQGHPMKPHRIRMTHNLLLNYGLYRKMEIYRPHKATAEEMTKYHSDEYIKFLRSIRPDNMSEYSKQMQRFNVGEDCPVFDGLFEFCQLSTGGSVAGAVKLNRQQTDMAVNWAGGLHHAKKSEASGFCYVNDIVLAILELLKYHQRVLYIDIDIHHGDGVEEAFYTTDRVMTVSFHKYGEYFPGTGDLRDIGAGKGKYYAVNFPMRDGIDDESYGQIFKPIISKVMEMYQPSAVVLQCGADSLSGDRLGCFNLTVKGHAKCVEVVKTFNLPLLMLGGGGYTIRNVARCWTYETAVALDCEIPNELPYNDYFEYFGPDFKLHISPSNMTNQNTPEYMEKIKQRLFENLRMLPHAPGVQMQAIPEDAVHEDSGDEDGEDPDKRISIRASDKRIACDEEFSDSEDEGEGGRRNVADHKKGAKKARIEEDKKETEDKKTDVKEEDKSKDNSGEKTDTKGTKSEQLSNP

SMILES | IC50 (NCI-H460) [nM] | IC50 (HCT-116) [nM] | IC50 (Histone deacetylase 2) [nM] | IC50 (NB-4) [nM]
COc1ccc(CO[C@H](CCCCCC(=O)NO)C(=O)Nc2ccccc2)cc1 | 500 | 390 | ≥ 50 | 70
COc1cccc(COC(CCCCCC(=O)NO)C(=O)N(Cc2cccc(OC)c2)c2ccccc2)c1 (stereo not given) | 7400 | 7500 | 500 | 4000
COc1cc(COC(CCCCCC(=O)NO)C(=O)Nc2ccccc2)cc(OC)c1 (stereo not given) | 450 | 300 | ≥ 50 | 50
COc1ccc(COC(CCCCCC(=O)NO)C(=O)Nc2ccc(OC)cc2)cc1 (stereo not given) | 300 | 340 | 500 | 150
O=C(CCCCCC(O)C(=O)Nc1ccccc1)NO (stereo not given) | 460 | 1090 | 500 | 340
COC(CCCCCC(=O)NO)C(=O)Nc1ccccc1 (stereo not given) | 1200 | 880 | 500 | 520
COc1ccc(COC(CCCCCC(=O)NO)C(=O)Nc2ccccc2)cc1 (stereo not given) | 520 | 220 | ≥ 50 | 120
COc1ccc(CO[C@@H](CCCCCC(=O)NO)C(=O)Nc2ccccc2)cc1 | 450 | 250 | ≥ 50 | 110
COC(CCCCC(=O)NO)C(=O)Nc1ccccc1 (stereo not given) | 5700 | 5000 | 500 | 3500
O=C(CCCCCC(Oc1cccc(Oc2ccccc2)c1)C(=O)Nc1ccccc1)NO (stereo not given) | 680 | 670 | – | 230
C=CCOC(CCCCCC(=O)NO)C(=O)Nc1ccccc1 (stereo not given) | 1790 | 990 | 500 | 450
C=CCOC(CCCCCCC(=O)NO)C(=O)Nc1ccccc1 (stereo not given) | 1800 | 950 | ≥ 50 | 620

More lines, main results first:

IC50 (NCI-H460) [nM] | IC50 (HCT-116) [nM] | IC50 (Histone deacetylase 2) [nM] | SMILES | IC50 (NB-4) [nM]
480 | 430 | ≥ 50 | O=C(CCCCCC(OCc1ccc(C(F)(F)F)cc1)C(=O)Nc1ccccc1)NO (stereo not given) | 170
590 | 270 | ≥ 50 | Cc1ccc(COC(CCCCCC(=O)NO)C(=O)Nc2ccccc2)cc1 (stereo not given) | 120
590 | 630 | ≥ 50 | COc1cccc(COC(CCCCCC(=O)NO)C(=O)Nc2ccccc2)c1 (stereo not given) | 160
1000 | 500 | 500 | COc1ccc(NC(=O)C(CCCCCC(=O)NO)OCc2ccccc2)cc1 (stereo not given) | 250
10400 | 8500 | 500 | CCCOC(CCCCC(=O)NO)C(=O)Nc1ccccc1 (stereo not given) | 4100
490 | 280 | ≥ 50 | O=C(CCCCCC(OCc1ccc(Br)cc1)C(=O)Nc1ccccc1)NO (stereo not given) | 60
5500 | 2400 | 500 | O=C(CCCCC(OCc1ccccc1)C(=O)Nc1ccccc1)NO (stereo not given) | > 5000
